From patent US11730712B2, “Functionalized long-chain hydrocarbon mono- and di-carboxylic acids and derivatives thereof, and their use for the prevention or treatment of disease” (ESPERVITA THERAPEUTICS, INC., priority 2021, dated 2023) come the findings set out here.

As usually defined, the IC50 is the concentration at which inhibition is half-maximal.

Several values for one entry are separate records, joined by “and”; a condition that tells them apart may be missing. Equal values may be shown once.

Common to all, as to format: biochemical
One assay has as its target T1, BMX/ETK (Homo sapiens, UniProt P51813).
T1 sequence (P51813 1-675): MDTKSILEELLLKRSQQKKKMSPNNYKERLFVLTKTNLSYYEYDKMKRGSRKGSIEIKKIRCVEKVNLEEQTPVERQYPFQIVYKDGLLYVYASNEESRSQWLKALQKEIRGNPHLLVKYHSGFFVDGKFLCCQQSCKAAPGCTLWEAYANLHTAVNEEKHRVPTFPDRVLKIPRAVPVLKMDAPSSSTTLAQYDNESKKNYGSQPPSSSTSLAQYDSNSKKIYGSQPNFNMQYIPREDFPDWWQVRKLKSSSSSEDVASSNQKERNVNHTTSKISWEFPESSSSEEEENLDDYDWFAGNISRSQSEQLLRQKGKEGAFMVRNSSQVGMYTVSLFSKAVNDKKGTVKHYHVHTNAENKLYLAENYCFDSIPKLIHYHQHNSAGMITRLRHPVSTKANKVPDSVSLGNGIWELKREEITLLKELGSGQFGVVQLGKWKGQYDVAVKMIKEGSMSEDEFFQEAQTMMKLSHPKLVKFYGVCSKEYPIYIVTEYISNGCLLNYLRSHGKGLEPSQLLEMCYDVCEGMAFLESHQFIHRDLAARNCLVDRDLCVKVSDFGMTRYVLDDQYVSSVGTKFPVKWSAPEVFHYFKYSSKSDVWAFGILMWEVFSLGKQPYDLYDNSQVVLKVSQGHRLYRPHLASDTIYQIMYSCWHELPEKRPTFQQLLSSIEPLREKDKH
The experiment in a line: Kinase assay, wild type kinases. The note with it: compound 10 μM, 10 μM ATP, duplicate (Data 1, Data 2), >100 activation, <100 inhibition; for remaining activity at 10 µM: read-out: % Enzyme Activity (relative to DMSO controls), BMX/ETK.

The target in the next assay is T2, human ACLY (Homo sapiens, UniProt P53396).
T2 construct: human ACLY (P533%) (Met 1-Met 1101) expressed in Baculovirus-Insect Cells; purchased Sino Biological Inc. 11769-H07B; host or cells: Baculovirus-Insect Cells
The experiment in a line: ATP-citrate lyase (ACLY) enzymatic assay (ADP-Glo). The settings on record: recombinant human ACLY, Run 1-3, read-out: Compound IC50 (M) ACLY. As for the experimental part:
ATP citrate lyase was obtained from Sino Biological Inc. Cat #11769-H07B, Lot #LC08DE1701. It was prepared from a DNA sequence encoding the human ACLY (P533%) (Met 1-Met 1101) expressed in Baculovirus-Insect Cells, with a polyhistidine tag at the N-terminus. The recombinant human ACLY consists of 1120 amino acids and has a calculated molecular mass of 123 kDa. It migrates as an approximately 110 kDa band in SDS-PAGE under reducing conditions. The enzyme came as a lyophilized powder in sterile 20 mM Tris, 500 mM NaCl, pH 8.0, 10% glycine. Normally 5%-8% trehalose and mannitol are added as protectants before lyophilization. […]
To detect ADP produced from ACL assay, the ADP-Glo™ assay format from Promega, Madison, Wis., was used, to detect the conversion of ATP to ADP. […] This assay is performed in two steps: i) after the ACL-mediated enzymatic reaction that utilizes ATP and produces ADP, ADP-Glo™ Reagent is added to terminate the kinase reaction and deplete the remaining ATP, and ii) the Kinase Detection Reagent is added to convert ADP to ATP and allow the newly synthesized ATP to be measured using a luciferase/luciferin reaction. The light generated, measured in a luminometer, correlates to the amount of ADP generated in the ACL assay, which is indicative of ACL activity. […]
A general note: ADP-Glo first removes unused ATP, then detects ADP through luciferase.

In the next assay the target is T3, Aurora A (Homo sapiens, UniProt O14965).
T3 sequence (O14965 1-403): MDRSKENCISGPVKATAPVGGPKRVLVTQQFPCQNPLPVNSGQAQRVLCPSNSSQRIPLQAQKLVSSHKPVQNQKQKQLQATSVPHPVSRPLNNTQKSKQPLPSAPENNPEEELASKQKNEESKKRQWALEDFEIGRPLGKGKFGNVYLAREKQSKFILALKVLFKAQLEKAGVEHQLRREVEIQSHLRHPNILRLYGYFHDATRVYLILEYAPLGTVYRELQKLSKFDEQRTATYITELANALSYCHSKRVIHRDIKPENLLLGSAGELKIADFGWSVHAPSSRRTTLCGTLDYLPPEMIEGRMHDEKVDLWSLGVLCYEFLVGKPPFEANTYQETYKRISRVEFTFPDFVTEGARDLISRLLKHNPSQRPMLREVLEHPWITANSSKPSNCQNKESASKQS
The experiment in a line: Kinase assay, wild type kinases. The settings on record: compound 10 μM, 10 μM ATP, duplicate (Data 1, Data 2), >100 activation, <100 inhibition; for remaining activity at 10 µM: read-out: % Enzyme Activity (relative to DMSO controls), Aurora A.

The target of another assay is T4, ERK7/MAPK15 (Homo sapiens, UniProt Q8TD08).
T4 sequence (Q8TD08 1-544): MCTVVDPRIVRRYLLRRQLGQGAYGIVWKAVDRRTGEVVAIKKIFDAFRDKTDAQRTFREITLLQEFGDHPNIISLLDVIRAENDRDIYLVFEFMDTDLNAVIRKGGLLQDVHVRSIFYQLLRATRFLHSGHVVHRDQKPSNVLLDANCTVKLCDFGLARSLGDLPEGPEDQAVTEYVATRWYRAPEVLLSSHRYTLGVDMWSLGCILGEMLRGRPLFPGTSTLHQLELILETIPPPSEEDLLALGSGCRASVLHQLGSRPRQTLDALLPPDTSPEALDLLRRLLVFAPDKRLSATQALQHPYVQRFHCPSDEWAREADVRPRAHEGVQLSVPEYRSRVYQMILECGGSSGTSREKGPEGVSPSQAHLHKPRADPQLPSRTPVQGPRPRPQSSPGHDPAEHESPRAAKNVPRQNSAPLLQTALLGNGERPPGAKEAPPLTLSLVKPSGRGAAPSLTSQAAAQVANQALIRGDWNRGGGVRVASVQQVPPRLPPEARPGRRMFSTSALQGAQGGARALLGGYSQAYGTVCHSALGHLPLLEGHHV
Nature of the assay: Kinase assay, wild type kinases. The note with it: compound 10 μM, 10 μM ATP, duplicate (Data 1, Data 2), >100 activation, <100 inhibition; for remaining activity at 10 µM: read-out: % Enzyme Activity (relative to DMSO controls), ERK7/MAPK15.

Another assay has as its target MLCK/MYLK (Homo sapiens, UniProt Q15746). Nature of the assay: Kinase assay, wild type kinases. The note with it: compound 10 μM, 10 μM ATP, duplicate (Data 1, Data 2), >100 activation, <100 inhibition; for remaining activity at 10 µM: read-out: % Enzyme Activity (relative to DMSO controls), MLCK/MYLK.

`CC(C)(CCCCc1cccc(CCCCC(C)(C)C(=O)SCCNC(=O)CCNC(=O)[C@H](O)C(C)(C)COP(=O)(O)OP(=O)(O)OC[C@H]2O[C@@H](n3cnc4c(N)ncnc43)[C@H](O)[C@@H]2OP(=O)(O)O)c1)C(=O)O` [Compound I-32-CoA, 6-[3-(5-Carboxy-5-methylhexyl)-phenyl]-2,2-dimethylhexanoic acid Coenzyme A Ester]: the “% Enzyme Activity (relative to DMSO controls), BMX/ETK” value on BMX/ETK is 49.54% and 43.87%. In addition, the IC50 at human ACLY is 9.88e-07 M and 1.22e-06 M and 1.44e-06 M. In addition, the “% Enzyme Activity (relative to DMSO controls), Aurora A” value on Aurora A is 13.04% and 11.95%. Besides, the “% Enzyme Activity (relative to DMSO controls), ERK7/MAPK15” value on ERK7/MAPK15 is 88.39% and 80.61%. In addition, the “% Enzyme Activity (relative to DMSO controls), MLCK/MYLK” value on MLCK/MYLK was 3.21% and 1.59%.

For the compound `CC(C)(CCCCc1cccc(CCCCC(C)(C)C(=O)O)c1)C(=O)O` [Compound I-32, 6-[3-(5-carboxy-5-methylhexyl)-phenyl]-2,2-dimethylhexanoic acid], the remaining activity at 10 µM at BMX/ETK amounted to 53.7%; on Aurora A, 94.9%; on ERK7/MAPK15, 104%; at MLCK/MYLK, 106%.

Consider `CC(C)(CCCCc1ccc(CCCCC(C)(C)C(=O)SCCNC(=O)CCNC(=O)[C@H](O)C(C)(C)COP(=O)(O)OP(=O)(O)OC[C@H]2O[C@@H](n3cnc4c(N)ncnc43)[C@H](O)[C@@H]2OP(=O)(O)O)cc1)C(=O)O` [Compound I-1-CoA, 6-[4-(5-carboxy-5-methylhexyl)-phenyl]-2,2-dimethylhexanoic acid Coenzyme A ester], for which the “% Enzyme Activity (relative to DMSO controls), BMX/ETK” value at BMX/ETK is 49.55% and 47.76%. The IC50 on human ACLY is 3.34e-06 M and 2.28e-06 M and 2.5e-06 M. Moreover, on Aurora A, the “% Enzyme Activity (relative to DMSO controls), Aurora A” value is 12.44% and 12.42%. The “% Enzyme Activity (relative to DMSO controls), ERK7/MAPK15” value at ERK7/MAPK15 is 51.57% and 45.02%. The “% Enzyme Activity (relative to DMSO controls), MLCK/MYLK” value at MLCK/MYLK is 2.06% and −0.71%.

Regarding `CC(C)(CCCCc1ccc(CCCCC(C)(C)C(=O)O)cc1)C(=O)O` [Compound I-1, 6-[4-(5-carboxy-5-methylhexyl)-phenyl]-2,2-dimethylhexanoic acid], the remaining activity at 10 µM at BMX/ETK is 55%; at Aurora A, 89.1%; at ERK7/MAPK15, 100%; on MLCK/MYLK, 110%.
